System: 997726-040-R-J2-PDC tumor spheroids, viability
Experiment: Anticancer human tumor 997726-040-R-J2-PDC patient-derived squamous cell lung carcinoma cell line growth inhibition [PI3K]
Details: spheroids with HUVEC and MSC; for IC50: curve of first compound; for viability, T/C: stronger effect = lower value
Method in brief: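 Complex 3D spheroids (cancer cells + endothelial HUVEC + mesenchymal stem cells); drug pairs of targeted agent x inavolisib/alpelisib/duvelisib/copanlisib; half-log series from ~Cmax, max 10 microM if Cmax unknown; endpoint viability.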
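Further: spheroids exposed to compounds for seven days before readout.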

Question: For `CC1(C)CCC(Nc2ncc(C(F)(F)F)c(-c3c[nH]c4c(P(C)(C)=O)c(C#N)ccc34)n2)CN1` (centres undefined) + CC(Nc1ncnc2nc[nH]c12)c1cc2cccc(Cl)c2c(=O)n1-c1ccccc1, which IC50 (second compound 0.0316 µM) is on record?
Answer: 496 nM

Question: And the IC50 (second compound 0.1 µM)?
Answer: 3510 nM

Question: And the IC50 (second compound 0.316 µM)?
Answer: 3300 nM

Question: What about the IC50 (second compound 1 µM) of the same compound?
Answer: 31.6 nM

Question: What about the IC50 (second compound 3.16 µM) of the same compound?
Answer: < 31.6 nM

Question: And the IC50 (second compound 10 µM)?
Answer: < 31.6 nM

Question: And the viability, T/C (second compound 0.0316 µM, first compound 0.0316 µM)?
Answer: 48.9%

Question: And the viability, T/C (second compound 0.0316 µM, first compound 0.1 µM)?
Answer: 45.7%

Question: What about the viability, T/C (second compound 0.0316 µM, first compound 0.316 µM) of the same compound?
Answer: 50%

Question: What about the viability, T/C (second compound 0.0316 µM, first compound 1 µM) of the same compound?
Answer: 59.5%

Question: What about the viability, T/C (second compound 0.0316 µM, first compound 3.16 µM) of the same compound?
Answer: 65.9%

Question: And the viability, T/C (second compound 0.0316 µM, first compound 10 µM)?
Answer: 29.6%

Question: And the viability, T/C (second compound 0.1 µM, first compound 0.0316 µM)?
Answer: 53.8%

Question: And the viability, T/C (second compound 0.1 µM, first compound 0.1 µM)?
Answer: 51.6%

Question: And the viability, T/C (second compound 0.1 µM, first compound 0.316 µM)?
Answer: 49.3%

Question: What about the viability, T/C (second compound 0.1 µM, first compound 1 µM) of the same compound?
Answer: 48.5%

Question: And the viability, T/C (second compound 0.1 µM, first compound 3.16 µM)?
Answer: 55.5%

Question: What about the viability, T/C (second compound 0.1 µM, first compound 10 µM) of the same compound?
Answer: 33%

Question: And the viability, T/C (second compound 0.316 µM, first compound 0.0316 µM)?
Answer: 52.3%

Question: And the viability, T/C (second compound 0.316 µM, first compound 0.1 µM)?
Answer: 47.6%

Question: What about the viability, T/C (second compound 0.316 µM, first compound 0.316 µM) of the same compound?
Answer: 45.3%

Question: And the viability, T/C (second compound 0.316 µM, first compound 1 µM)?
Answer: 53.3%

Question: And the viability, T/C (second compound 0.316 µM, first compound 3.16 µM)?
Answer: 56%

Question: What about the viability, T/C (second compound 0.316 µM, first compound 10 µM) of the same compound?
Answer: 26.5%

Question: And the viability, T/C (second compound 1 µM, first compound 0.0316 µM)?
Answer: 49.2%

Question: And the viability, T/C (second compound 1 µM, first compound 0.1 µM)?
Answer: 46.2%

Question: And the viability, T/C (second compound 1 µM, first compound 0.316 µM)?
Answer: 45.2%

Question: What about the viability, T/C (second compound 1 µM, first compound 1 µM) of the same compound?
Answer: 44.7%

Question: What about the viability, T/C (second compound 1 µM, first compound 3.16 µM) of the same compound?
Answer: 52.2%

Question: And the viability, T/C (second compound 1 µM, first compound 10 µM)?
Answer: 27.3%

Question: And the viability, T/C (second compound 3.16 µM, first compound 0.0316 µM)?
Answer: 42.1%

Question: What about the viability, T/C (second compound 3.16 µM, first compound 0.1 µM) of the same compound?
Answer: 40.7%

Question: And the viability, T/C (second compound 3.16 µM, first compound 0.316 µM)?
Answer: 36%

Question: And the viability, T/C (second compound 3.16 µM, first compound 1 µM)?
Answer: 39.3%

Question: What about the viability, T/C (second compound 3.16 µM, first compound 3.16 µM) of the same compound?
Answer: 53.8%

Question: What about the viability, T/C (second compound 3.16 µM, first compound 10 µM) of the same compound?
Answer: 21.7%

Question: And the viability, T/C (second compound 10 µM, first compound 0.0316 µM)?
Answer: 32%

Question: And the viability, T/C (second compound 10 µM, first compound 0.1 µM)?
Answer: 29.2%

Question: And the viability, T/C (second compound 10 µM, first compound 0.316 µM)?
Answer: 31.5%

Question: What about the viability, T/C (second compound 10 µM, first compound 1 µM) of the same compound?
Answer: 37.7%

Question: And the viability, T/C (second compound 10 µM, first compound 3.16 µM)?
Answer: 39.8%

Question: What about the viability, T/C (second compound 10 µM, first compound 10 µM) of the same compound?
Answer: 14.1%

Question: For `Cn1cnc2c(F)c(Nc3ccc(Br)cc3Cl)c(C(=O)NOCCO)cc21` + COc1c(OCCCN2CCOCC2)ccc2c3n(c(=NC(=O)c4cnc(N)nc4)nc12)CCN3, which IC50 (second compound 0.00316 µM) is on record?
Answer: 46.1 nM

Question: And the IC50 (second compound 0.01 µM)?
Answer: < 9.49 nM

Question: And the IC50 (second compound 0.0316 µM)?
Answer: < 9.49 nM

Question: And the IC50 (second compound 0.1 µM)?
Answer: < 9.49 nM

Question: And the IC50 (second compound 0.316 µM)?
Answer: < 9.49 nM

Question: What about the IC50 (second compound 1 µM) of the same compound?
Answer: < 9.49 nM

Question: What about the viability, T/C (second compound 0.00316 µM, first compound 0.00949 µM) of the same compound?
Answer: 60.5%

Question: And the viability, T/C (second compound 0.00316 µM, first compound 0.03 µM)?
Answer: 55.1%

Question: And the viability, T/C (second compound 0.00316 µM, first compound 0.0949 µM)?
Answer: 39.2%

Question: What about the viability, T/C (second compound 0.00316 µM, first compound 0.3 µM) of the same compound?
Answer: 46.1%

Question: And the viability, T/C (second compound 0.00316 µM, first compound 0.949 µM)?
Answer: 38%

Question: And the viability, T/C (second compound 0.00316 µM, first compound 3 µM)?
Answer: 33.2%

Question: And the viability, T/C (second compound 0.01 µM, first compound 0.00949 µM)?
Answer: 44.3%

Question: And the viability, T/C (second compound 0.01 µM, first compound 0.03 µM)?
Answer: 43%

Question: What about the viability, T/C (second compound 0.01 µM, first compound 0.0949 µM) of the same compound?
Answer: 39.1%

Question: What about the viability, T/C (second compound 0.01 µM, first compound 0.3 µM) of the same compound?
Answer: 36.5%

Question: And the viability, T/C (second compound 0.01 µM, first compound 0.949 µM)?
Answer: 28.6%

Question: What about the viability, T/C (second compound 0.01 µM, first compound 3 µM) of the same compound?
Answer: 27.5%

Question: And the viability, T/C (second compound 0.0316 µM, first compound 0.00949 µM)?
Answer: 36.6%

Question: What about the viability, T/C (second compound 0.0316 µM, first compound 0.03 µM) of the same compound?
Answer: 33.4%

Question: And the viability, T/C (second compound 0.0316 µM, first compound 0.0949 µM)?
Answer: 26.2%

Question: And the viability, T/C (second compound 0.0316 µM, first compound 0.3 µM)?
Answer: 24.6%

Question: What about the viability, T/C (second compound 0.0316 µM, first compound 0.949 µM) of the same compound?
Answer: 24.1%

Question: And the viability, T/C (second compound 0.0316 µM, first compound 3 µM)?
Answer: 16.7%

Question: And the viability, T/C (second compound 0.1 µM, first compound 0.00949 µM)?
Answer: 20.8%

Question: And the viability, T/C (second compound 0.1 µM, first compound 0.03 µM)?
Answer: 20.8%

Question: What about the viability, T/C (second compound 0.1 µM, first compound 0.0949 µM) of the same compound?
Answer: 15.6%

Question: What about the viability, T/C (second compound 0.1 µM, first compound 0.3 µM) of the same compound?
Answer: 15.2%

Question: What about the viability, T/C (second compound 0.1 µM, first compound 0.949 µM) of the same compound?
Answer: 14.7%

Question: And the viability, T/C (second compound 0.1 µM, first compound 3 µM)?
Answer: 7.1%

Question: And the viability, T/C (second compound 0.316 µM, first compound 0.00949 µM)?
Answer: 5.7%

Question: What about the viability, T/C (second compound 0.316 µM, first compound 0.03 µM) of the same compound?
Answer: 5.13%

Question: What about the viability, T/C (second compound 0.316 µM, first compound 0.0949 µM) of the same compound?
Answer: 2.49%

Question: And the viability, T/C (second compound 0.316 µM, first compound 0.3 µM)?
Answer: 2.68%

Question: What about the viability, T/C (second compound 0.316 µM, first compound 0.949 µM) of the same compound?
Answer: 1.51%

Question: What about the viability, T/C (second compound 0.316 µM, first compound 3 µM) of the same compound?
Answer: 0.35%

Question: And the viability, T/C (second compound 1 µM, first compound 0.00949 µM)?
Answer: 2.27%

Question: What about the viability, T/C (second compound 1 µM, first compound 0.03 µM) of the same compound?
Answer: 1.05%

Question: What about the viability, T/C (second compound 1 µM, first compound 0.0949 µM) of the same compound?
Answer: 0.66%

Question: What about the viability, T/C (second compound 1 µM, first compound 0.3 µM) of the same compound?
Answer: 0.55%

Question: What about the viability, T/C (second compound 1 µM, first compound 0.949 µM) of the same compound?
Answer: 0.39%

Question: And the viability, T/C (second compound 1 µM, first compound 3 µM)?
Answer: 0.27%

From PubChem BioAssay AID1963964 (Molecular Pharmacology Branch, DTP, NCI, 2024)
